ChEMBL document CHEMBL3885861, “Open TG-GATES”

Species on record: Rattus norvegicus
Assay: Open TG-GATES - Regimen: Daily Repeat
Format: toxicity, organism-based, Sprague-Dawley
Design: regimen Daily Repeat, gender Male, age 6 weeks
Settings: in vivo, po, 5 mg/kg, route gavage, dose level Middle; for APTT / Bas / Eos / Fbg / Hb / Ht / Lym / MCH / MCHC / MCV / Mono / Neu / PT / Plat / RBC / Ret / WBC: tissue Blood; for KIDNEY_L / KIDNEY_R / KIDNEY_TOTAL: tissue Kidney; for LIVER: tissue Liver; for ALP / ALT / AST / BUN / CRE / Ca / Cl / DBIL / GLC / IP / K / LDH / Na / PL / RALB / TBIL / TC / TG / TP / gamma-GTP: tissue Plasma

`O=P1(N(CCCl)CCCl)NCCCO1` (stereo not drawn) [CYCLOPHOSPHAMIDE ANHYDROUS] gave a TERMINAL_BW (72 h, time 3 day) of 226.6 g, an APTT (72 h, time 3 day) of 21.9 s and a Bas (72 h, time 3 day) of 0%. The Eos (72 h, time 3 day) was 1%, the Fbg (72 h, time 3 day) was 272.4 mg/dL and the Hb (72 h, time 3 day) was 13 g/dL. It also gave a Ht (72 h, time 3 day) of 39.1%, a Lym (72 h, time 3 day) of 81.6% and an MCH (72 h, time 3 day) of 21.9 pg. For the same compound, the MCHC (72 h, time 3 day) was 33.2%, the MCV (72 h, time 3 day) was 65.8 fL and the Mono (72 h, time 3 day) was 2.4%. For the same compound, the Neu (72 h, time 3 day) was 14%, the PT (72 h, time 3 day) was 16.9 s and the Plat (72 h, time 3 day) was 114.8 x10_4/uL. It also gave an RBC (72 h, time 3 day) of 593 x10_4/ul, a Ret (72 h, time 3 day) of 6.3% and a WBC (72 h, time 3 day) of 54.2 x10_2/uL. It also gave a KIDNEY_L (72 h, time 3 day) of 1 g, a KIDNEY_R (72 h, time 3 day) of 1 g and a KIDNEY_TOTAL (72 h, time 3 day) of 2 g. It also gave an LIVER (72 h, time 3 day) of 10.7 g, an ALP (72 h, time 3 day) of 1691.2 IU/L and an ALT (72 h, time 3 day) of 40.6 IU/L. It also gave an AST (72 h, time 3 day) of 68.6 IU/L, a BUN (72 h, time 3 day) of 17 mg/dL and a CRE (72 h, time 3 day) of 0.2 mg/dL. For the same compound, the Ca (72 h, time 3 day) was 10.9 mg/dL, the Cl (72 h, time 3 day) was 104.6 meq/L and the DBIL (72 h, time 3 day) was 0.002 mg/dL. It also gave a GLC (72 h, time 3 day) of 182.8 mg/dL, an IP (72 h, time 3 day) of 8 mg/dL and a K (72 h, time 3 day) of 4.1 meq/L. For the same compound, the LDH (72 h, time 3 day) was 172 IU/L, the Na (72 h, time 3 day) was 141.6 meq/L and the PL (72 h, time 3 day) was 149.6 mg/dL. For the same compound, the RALB (72 h, time 3 day) was 3 g/dL, the TBIL (72 h, time 3 day) was 0.022 mg/dL and the TC (72 h, time 3 day) was 75.4 mg/dL. For the same compound, the TG (72 h, time 3 day) was 94.4 mg/dL, the TP (72 h, time 3 day) was 5.5 g/dL and the gamma-GTP (72 h, time 3 day) was 1 IU/L. For the same compound, the TERMINAL_BW ([…], time 7 day) was 245.9 g, the TERMINAL_BW ([…], time 14 day) was 288.6 g and the TERMINAL_BW ([…], time 28 day) was 359.3 g. It also gave an APTT ([…], time 7 day) of 22 s, a Bas ([…], time 7 day) of 0% and an Eos ([…], time 7 day) of 0.6%. The Fbg ([…], time 7 day) was 273.8 mg/dL, the Hb ([…], time 7 day) was 13.5 g/dL and the Ht ([…], time 7 day) was 40.4%. For the same compound, the Lym ([…], time 7 day) was 82.4%, the MCH ([…], time 7 day) was 20.9 pg and the MCHC ([…], time 7 day) was 33.4%. The MCV ([…], time 7 day) was 62.7 fL, the Mono ([…], time 7 day) was 3.2% and the Neu ([…], time 7 day) was 12.6%. The PT ([…], time 7 day) was 15.8 s, the Plat ([…], time 7 day) was 133.9 x10_4/uL and the RBC ([…], time 7 day) was 644.2 x10_4/ul. The Ret ([…], time 7 day) was 5.3%, the WBC ([…], time 7 day) was 36.4 x10_2/uL and the APTT ([…], time 14 day) was 22 s. For the same compound, the Bas ([…], time 14 day) was 0%, the Eos ([…], time 14 day) was 1.4% and the Fbg ([…], time 14 day) was 305.8 mg/dL. The Hb ([…], time 14 day) was 13.8 g/dL, the Ht ([…], time 14 day) was 40.5% and the Lym ([…], time 14 day) was 75.2%. The MCH ([…], time 14 day) was 20.4 pg, the MCHC ([…], time 14 day) was 34% and the MCV ([…], time 14 day) was 59.9 fL. For the same compound, the Mono ([…], time 14 day) was 4.6%, the Neu ([…], time 14 day) was 17.2% and the PT ([…], time 14 day) was 14.6 s. For the same compound, the Plat ([…], time 14 day) was 116.3 x10_4/uL, the RBC ([…], time 14 day) was 676.8 x10_4/ul and the Ret ([…], time 14 day) was 3.5%. The WBC ([…], time 14 day) was 27.7 x10_2/uL, the APTT ([…], time 28 day) was 21.7 s and the Bas ([…], time 28 day) was 0%. The Eos ([…], time 28 day) was 1.4%, the Fbg ([…], time 28 day) was 308 mg/dL and the Hb ([…], time 28 day) was 14.5 g/dL. The Ht ([…], time 28 day) was 42.5%, the Lym ([…], time 28 day) was 73% and the MCH ([…], time 28 day) was 19.3 pg. It also gave an MCHC ([…], time 28 day) of 34.3%, an MCV ([…], time 28 day) of 56.5 fL and a Mono ([…], time 28 day) of 3.6%. The Neu ([…], time 28 day) was 20.8%, the PT ([…], time 28 day) was 16 s and the Plat ([…], time 28 day) was 110.7 x10_4/uL. The RBC ([…], time 28 day) was 752.2 x10_4/ul, the Ret ([…], time 28 day) was 3% and the WBC ([…], time 28 day) was 35.5 x10_2/uL. For the same compound, the KIDNEY_L ([…], time 7 day) was 1 g, the KIDNEY_R ([…], time 7 day) was 1 g and the KIDNEY_TOTAL ([…], time 7 day) was 2 g. It also gave a KIDNEY_L ([…], time 14 day) of 1.2 g, a KIDNEY_R ([…], time 14 day) of 1.2 g and a KIDNEY_TOTAL ([…], time 14 day) of 2.3 g. The KIDNEY_L ([…], time 28 day) was 1.3 g, the KIDNEY_R ([…], time 28 day) was 1.3 g and the KIDNEY_TOTAL ([…], time 28 day) was 2.6 g. The LIVER ([…], time 7 day) was 10.8 g, the LIVER ([…], time 14 day) was 12.3 g and the LIVER ([…], time 28 day) was 14.6 g. For the same compound, the ALP ([…], time 7 day) was 1412.8 IU/L, the ALT ([…], time 7 day) was 38.2 IU/L and the AST ([…], time 7 day) was 65 IU/L. It also gave a BUN ([…], time 7 day) of 18.8 mg/dL, a CRE ([…], time 7 day) of 0.2 mg/dL and a Ca ([…], time 7 day) of 11 mg/dL. For the same compound, the Cl ([…], time 7 day) was 105.6 meq/L, the DBIL ([…], time 7 day) was 0 mg/dL and the GLC ([…], time 7 day) was 180.4 mg/dL. For the same compound, the IP ([…], time 7 day) was 6.8 mg/dL, the K ([…], time 7 day) was 3.9 meq/L and the LDH ([…], time 7 day) was 130 IU/L. It also gave a Na ([…], time 7 day) of 142.8 meq/L, a PL ([…], time 7 day) of 141.6 mg/dL and an RALB ([…], time 7 day) of 2.9 g/dL. The TBIL ([…], time 7 day) was 0.016 mg/dL, the TC ([…], time 7 day) was 74.6 mg/dL and the TG ([…], time 7 day) was 115.2 mg/dL. It also gave a TP ([…], time 7 day) of 5.5 g/dL, a gamma-GTP ([…], time 7 day) of 1.4 IU/L and an ALP ([…], time 14 day) of 1134.4 IU/L. It also gave an ALT ([…], time 14 day) of 36.6 IU/L, an AST ([…], time 14 day) of 57.2 IU/L and a BUN ([…], time 14 day) of 17.2 mg/dL. It also gave a CRE ([…], time 14 day) of 0.2 mg/dL, a Ca ([…], time 14 day) of 10.6 mg/dL and a Cl ([…], time 14 day) of 108.6 meq/L. It also gave a DBIL ([…], time 14 day) of 0 mg/dL, a GLC ([…], time 14 day) of 171 mg/dL and an IP ([…], time 14 day) of 7.1 mg/dL. For the same compound, the K ([…], time 14 day) was 4 meq/L, the LDH ([…], time 14 day) was 148.8 IU/L and the Na ([…], time 14 day) was 143.6 meq/L. For the same compound, the PL ([…], time 14 day) was 150.4 mg/dL, the RALB ([…], time 14 day) was 3 g/dL and the TBIL ([…], time 14 day) was 0.016 mg/dL. For the same compound, the TC ([…], time 14 day) was 80.4 mg/dL, the TG ([…], time 14 day) was 129.2 mg/dL and the TP ([…], time 14 day) was 5.7 g/dL. For the same compound, the gamma-GTP ([…], time 14 day) was 1 IU/L, the ALP ([…], time 28 day) was 973.8 IU/L and the ALT ([…], time 28 day) was 34.4 IU/L. For the same compound, the AST ([…], time 28 day) was 57.8 IU/L, the BUN ([…], time 28 day) was 16.8 mg/dL and the CRE ([…], time 28 day) was 0.2 mg/dL. For the same compound, the Ca ([…], time 28 day) was 10.5 mg/dL, the Cl ([…], time 28 day) was 106.6 meq/L and the DBIL ([…], time 28 day) was 0.002 mg/dL. The GLC ([…], time 28 day) was 190.2 mg/dL, the IP ([…], time 28 day) was 6.5 mg/dL and the K ([…], time 28 day) was 3.8 meq/L. The LDH ([…], time 28 day) was 133 IU/L, the Na ([…], time 28 day) was 144 meq/L and the PL ([…], time 28 day) was 135.8 mg/dL. The RALB ([…], time 28 day) was 3.1 g/dL, the TBIL ([…], time 28 day) was 0.024 mg/dL and the TC ([…], time 28 day) was 68.8 mg/dL. It also gave a TG ([…], time 28 day) of 111.6 mg/dL, a TP ([…], time 28 day) of 5.9 g/dL and a gamma-GTP ([…], time 28 day) of 1.2 IU/L.
